{"source": "patent US10772967B2", "about": "“Enhanced anticancer agent” (priority 2014, dated 2020)", "key": {"[1]": {"assay": "Dose escalation of AG10 in rats, plasma concentration", "conditions": "i.v., initial rapid decline of total plasma concentration", "method": "Adult male Wistar rats, body weight ranging 160-200 g, were used for the study. […] Blood samples were collected at 0.08, 2, 4, 8, and 24 hour time intervals. The plasma samples were prepared by centrifugation at 15,000 RPM for 5 min. The resultant plasma was precipitated using 2× solvent B (95:5, Methanol-Water, 0.1% TFA)."}, "[2]": {"test_system": "T1, trypsin", "T1 construct": "purchased Gibco TrypLE Express", "T1 sequence (P35049 25-248)": "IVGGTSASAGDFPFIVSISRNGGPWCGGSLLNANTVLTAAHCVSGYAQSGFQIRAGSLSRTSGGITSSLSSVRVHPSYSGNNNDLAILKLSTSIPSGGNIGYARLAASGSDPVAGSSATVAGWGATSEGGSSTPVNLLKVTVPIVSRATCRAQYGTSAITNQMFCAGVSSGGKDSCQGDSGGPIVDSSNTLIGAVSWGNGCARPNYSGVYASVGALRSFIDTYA", "assay": "Trypsin cleavage experiment in buffer, 7-AMC release", "type": "biochemical", "conditions": "hTTR present", "procedure": "We used trypsin to test the ability of hTTR to protect TLHE1-peptide conjugate (Conj1) from proteolysis in buffer. FIG. 14 illustrates the protection effect of binding to TTR on the stability of Conj1 in vitro. hTTR protects Conj1 against trypsin hydrolysis in buffer, according to some embodiments.\nAFU is arbitrary fluorescence units.\nThe experiment was performed in quadruplicate."}, "[3]": {"assay": "Stability against proteolytic hydrolysis in human serum", "conditions": "human serum pre-incubated with AG10 (10 μM)", "quoted_text": "The amounts of compounds remaining in serum were quantitated at different time-points."}, "[4]": {"assay": "Pharmacokinetic profile of Conj3 and Conj4 in rats", "conditions": "i.v.", "method": "(§1) The concentration of test compounds in plasma was determined using validated HPLC method and plotted as a function of time after dosing. Concentrations are expressed as means (±SEM).\n(§2) Jugular vein cannulated Sprague-Dawley male rats (200-220 g, 49-52 days old) were used for this study. An extension catheter was attached to the indwelling jugular vein cannula to facilitate remote sampling. The animals were randomly divided into two groups (N=3 or 4): control group and treatment group. […] Simultaneously, the control group was pretreated with vehicle (sterile water) followed by a single combined intravenous dose of molar equivalent of all test compounds as described above. Plasma was collected from each rat and precipitated using 2× solvent B (95:5, Methanol-Water, 0.1% TFA)."}, "[5]": {"conditions": "rat, in vivo, iv", "method": "as §1, §2"}, "[6]": {"assay": "Chemical stability in serum and simulated gastric acid", "type": "in vitro ADME", "conditions": "at least 48 h", "from_the_text": "Therefore, TLHE1 is a very good candidate for conjugation to peptides."}}, "note": "Where two headings read alike, the source gives them in different places."}
{"smiles": "Cc1n[nH]c(C)c1CCCOc1cc(C(=O)O)ccc1F", "note": "[AG10]", "values": [{"measurement": "initial half-life", "setting": "[1]", "value": "5 to 20", "unit": "min"}]}
{"smiles": "Cc1cc(=O)oc2cc(NC(=O)C(CCCCN)NC(=O)CNC(=O)C(CCCNC(=N)N)NC(=O)CCOCCOCCOCCN=[N+]=[N-])ccc12", "note": "(stereo not drawn) [Arg-Gly-Lys-MCA]", "values": [{"measurement": "protection against proteolysis in the presence of hTTR (in words)", "setting": "[2]", "value": "no protection against proteolysis"}]}
{"smiles": "CC[C@H](C)[C@H](NC(=O)[C@H](Cc1ccc(O)cc1)NC(=O)[C@@H]1CCCN1C(=O)[C@H](CCCNC(=N)N)NC(=O)[C@H](CCCNC(=N)N)NC(=O)[C@@H]1CCCN1C(=O)[C@H](CCCCN)NC(=O)[C@H](CC(N)=O)NC(=O)[C@H](CCC(=O)O)NC(=O)[C@H](Cc1ccc(O)cc1)NC(=O)[C@H](CC(C)C)NC(=O)[C@H](CCC(=O)O)NC(=O)CCOCCOCCOCCn1cc(CCCOc2cc(OCCCc3c(C)n[nH]c3C)cc(C(=O)O)c2)nn1)C(=O)N[C@@H](CC(C)C)C(=O)O", "note": "[Conj2]", "values": [{"measurement": "amount remaining after 24 h in serum pre-incubated with AG10", "setting": "[3]; 24 h", "value": "no detectable amount"}]}
{"smiles": "Cc1n[nH]c(C)c1CCCOc1cc(OCCCc2cn(CCOCCOCCOCCC(=O)NC(CCC(=O)O)C(=O)NC(Cc3c[nH]cn3)C(=O)NC(Cc3c[nH]c4ccccc34)C(=O)NC(CO)C(=O)NC(Cc3ccc(O)cc3)C(=O)NCC(=O)NC(CC(C)C)C(=O)NC(CCCNC(=N)N)C(=O)N3CCCC3C(=O)NCC(N)=O)nn2)cc(C(=O)O)c1", "note": "(centres unmarked) [Conj3]", "values": [{"measurement": "amount remaining after 48 h in serum pre-incubated with AG10", "setting": "[3]; 48 h", "value": "no detectable amount"}]}
{"smiles": "Cc1n[nH]c(C)c1CCCOc1cc(OCCCc2cn(CCOCCOCCOCCC(=O)NCCCCC(NC(=O)C(Cc3ccc(O)cc3)NC(=O)C(CO)NC(=O)C(Cc3c[nH]c4ccccc34)NC(=O)C(Cc3c[nH]cn3)NC(=O)C3CCC(=O)N3)C(=O)NC(CC(C)C)C(=O)NC(CCCNC(=N)N)C(=O)N3CCCC3C(=O)NCC(N)=O)nn2)cc(C(=O)O)c1", "note": "(centres unmarked) [Conj4]", "values": [{"measurement": "time present in circulation", "setting": "[4]", "value": "at least 12 h"}]}
{"smiles": "CC(C)C[C@H](NC(=O)[C@@H](CCCCN)NC(=O)[C@H](Cc1ccc(O)cc1)NC(=O)[C@H](CO)NC(=O)[C@H](Cc1c[nH]c2ccccc12)NC(=O)[C@H](Cc1cnc[nH]1)NC(=O)[C@@H]1CCC(=O)N1)C(=O)N[C@@H](CCCNC(=N)N)C(=O)N1CCC[C@H]1C(=O)NCC(N)=O", "note": "[GnRH-A, reference compound]", "values": [{"measurement": "plasma levels after 2 h of administration", "setting": "[4]", "value": "no detectable levels"}]}
{"smiles": "CC(C)C[C@H](NC(=O)[C@@H](CCCCNC(=O)CCOCCOCCOCCN=[N+]=[N-])NC(=O)[C@H](Cc1ccc(O)cc1)NC(=O)[C@H](CO)NC(=O)[C@H](Cc1c[nH]c2ccccc12)NC(=O)[C@H](Cc1c[nH]cn1)NC(=O)[C@@H]1CCC(=O)N1)C(=O)N[C@@H](CCCNC(=N)N)C(=O)N1CCC[C@H]1C(=O)NCC(N)=O", "note": "[GnRH-A-Linker]", "values": [{"measurement": "plasma levels after 2 h of administration", "setting": "[5]", "value": "no detectable levels"}]}
{"smiles": "C#CCCCOc1cc(OCCCc2c(C)n[nH]c2C)cc(C(=O)O)c1", "note": "[TLHE1, 3-(3-(3,5-dimethyl-1H-pyrazol-4-yl)propoxy)-5-(pent-4-yn-1-yloxy)benzoic Acid]", "values": [{"measurement": "degradation", "setting": "[6]", "value": "< 3", "unit": "%"}]}
